Results taken from patent US9663569B2, “Use of blocking agents of bone morphogenic protein (BMP) signalling for the treatment of neuroinflammatory and neurodegenerative diseases” (THE MEDICAL RESEARCH, INFRASTRUCTURE, AND HEALTH SERVICES …, priority 2012, dated 2017).

Tested on: SJL female mice with induced RR-EAE
Assay: RR-EAE clinical score in SJL mice after systemic treatment
Type: in vivo
Description: The SJL/EAE mice model was chosen based on its relapsing and remitting (RR) pattern, which resembles the pattern of RR-multiple sclerosis in humans. RR-EAE was induced in SJL female mice (8 weeks old, Harlan Laboratories, Ltd. Israel) by subcutaneous immunization (designated day 0) with proteolipid protein peptide (PLP139-151, BioSight Ltd.) at a concentration of 100 μg/mouse.
In both models the peptides used for EAE induction were emulsified in an equal volume of Complete Freund's Adjuvant (CFA, DIFCO), containing 500 μg Mycobacterium tuberculosis H37RA (MT, DIFCO). In addition, the mice received two consecutive intraperitoneal injections of 300 ng Pertussis toxin (PTX, Sigma-Aldrich) in 0.2 ml PBS. The first injection was given at day 0 and a second injection was given 48 h afterwards.
Day 9 post induction of EAE was chosen for administration of anti-BMP neutralizing antibodies, in order to affect both the onset and the severity of EAE. […], emulsified in 200 μl PBS: anti-human BMP-2/4 (an antibody which recognizes both BMP-2 and BMP-4), anti-human BMP-5, and anti-human BMP-7 mAbs (all anti-BMP neutralizing monoclonal antibodies were obtained from R&D systems). Commercial anti-human BMPs were used based on the high homology (>95%) between human and mouse BMPs. […] Since the blood brain barrier (BBB) is disrupted in the EAE mice by the presence of pertussis toxin, the injected antibodies are present systemically in the blood stream but are also transmitted to the CNS through the disrupted BBB.
Mice treated with corresponding isotype controls (IgG1 and IgG2β, termed herein “IC”) (R&D systems) as well as mice treated with the vehicle PBS alone (termed herein “vehicle”) were used as negative controls (n=12 in each group).
Mice were monitored for symptoms of RR-EAE and were scored as follows: “0” for no disease; “1”, tail paralysis; “2”, hind limb weakness; “3”, hind limb paralysis; “4”, hind limb and forelimb paralysis; “5”, moribund.
[…] Animals were daily monitored for EAE symptoms and scored as described above. […]

[1] = 10 mg/kg i.p. every 12 hr for 5 days from day 9 post immunization

Structure (SMILES): c1cc(-c2cnn3cc(-c4ccc(OCCN5CCCCC5)cc4)cnc23)ccn1 [dorsomorphin, 6-[4-(2-Piperidin-1-yl-ethoxy)phenyl]-3-pyridin-4-yl-pyrazolo[1,5-a]pyrimidine]
- form of the disease during treatment [1]: very mild form of the disease
- onset of the first relapse delayed to day [1]: 16 days
- mice exhibiting the severe forms of the disease (score 2-5) (10 mg/kg i.p., day 9 to day 13, until day 16 post immunization): no mice
